Assay results taken from ChEMBL document CHEMBL5365481, “Design, Synthesis, and Activity Evaluation of Novel Dual-Target Inhibitors with Antifungal and Immunoregulatory Properties” (J Med Chem, 2023).
In brackets after ≈: the same amount, converted by molar mass. Activity calls are given as the source filed them. The calls are words filed in the database; no cut-off is given here.

What was measured:
Candida albicans [1] = assay: In vivo antifungal activity against Candida albicans ATCC SC5314 infected in BALB/c mouse assessed as decrease in necrotic cell debris in tissue gap at 10 ug, ip for 14 days by GMS staining based microscopy; format: functional, organism-based; details: dose 10.0 µg, time 14.0 day
[2] = molecular target: T1, Lanosterol 14-alpha demethylase (Candida albicans (strain SC5314 / ATCC MYA-2876) (Yeast), UniProt P10613); assay: Inhibition of Candida albicans ATCC SC5314 CYP51 assessed as ergosterol content at 4 ug/ml measured after 16 hrs by GC-MS analysis (reference value: 92.71%); design: scale not given: the % may be the effect or the level left; details: at 4 µg/mL
Candida albicans [3] = assay: Antifungal activity against Candida albicans ATCC SC5314 assessed as decrease in fungal cell density at 1 microM/ml incubated for 48 hrs by absorbance based assay; format: functional, organism-based
[4] = Toxicity in BALB/c mouse infected with Candida albicans ATCC SC5314 assessed as plasma AST level at 10 ug, ip for 14 days; format: organism-based; details: in vivo, 336 h, dose 10 µg, time 14 day
[5] = molecular target: T1, Lanosterol 14-alpha demethylase; assay: Inhibition of Candida albicans ATCC SC5314 CYP51 assessed as eburicol content at 4 ug/ml measured after 16 hrs by GC-MS analysis (Rvb= 3.47%); design: scale not given: the % may be the effect or the level left; details: at 4 µg/mL
Candida albicans [6] = assay: Induction of mitochondrial membrane depolarization in Candida albicans ATCC SC5314 assessed as depolarized cells at 1 microM/ml incubated for 24 hrs by JC-1 staining based flow cytometry assay (reference value: 0.3 to 5.1%); format: functional
Aspergillus fumigatus = assay: Antifungal activity against Aspergillus fumigatus KM8001 assessed as inhibition of fungal growth incubated for 72 hrs by CLSI based liquid medium microdilution method; format: functional
[7] = Toxicity in BALB/c mouse infected with Candida albicans ATCC SC5314 assessed as morphological changes in heart at 10 ug, ip for 14 days by H and E staining based microscopy; format: organism-based; details: in vivo, 336 h, dose 10 µg, time 14 day
Candida albicans [8] = assay: In vivo antifungal activity against Candida albicans ATCC SC5314 infected in BALB/c mouse assessed as decrease in PD-L1 expression level at 10 ug, ip for 14 days by Western blot analysis; format: functional, organism-based; details: dose 10.0 µg, time 14.0 day
Candida albicans [9] = assay: Antifungal activity against fluconazole-resistant Candida albicans 632 assessed as inhibition of fungal growth incubated for 72 hrs by CLSI based liquid medium microdilution method; format: functional
Pichia kudriavzevii = assay: Antifungal activity against Candida krusei ATCC 6258 assessed as inhibition of fungal growth incubated for 72 hrs by CLSI based liquid medium microdilution method; format: functional
Candida albicans [10] = assay: In vivo antifungal activity against Candida albicans ATCC SC5314 infected in BALB/c mouse assessed as decrease in IFN-gamma expression level at 10 ug, ip for 14 days by immunohistochemical analysis; format: functional, organism-based; details: dose 10.0 µg, time 14.0 day
Candida albicans [11] = assay: Induction of apoptosis in Candida albicans ATCC SC5314 assessed as increase in blue fluorescence intensity at 1 microM/ml incubated for 48 hrs by Hoechst 33258/PI staining based fluorescence microscopy; format: functional, organism-based
Candida albicans [12] = assay: In vivo antifungal activity against Candida albicans ATCC SC5314 infected in BALB/c mouse assessed as reversal of cell morphology to normal state at 10 ug, ip for 14 days by GMS staining based microscopy; format: functional, organism-based; details: dose 10.0 µg, time 14.0 day
Candida albicans [13] = assay: Induction of mitochondrial membrane depolarization in Candida albicans ATCC SC5314 assessed as polarized cells at 1 microM/ml incubated for 24 hrs by JC-1 staining based flow cytometry assay (reference value: 0.28 +/- 0.02%); format: functional
Candida albicans [14] = assay: Antifungal activity against fluconazole-resistant Candida albicans 901 assessed as inhibition of fungal growth incubated for 72 hrs by CLSI based liquid medium microdilution method; format: functional
[15] = molecular target: T1, Lanosterol 14-alpha demethylase; assay: Inhibition of Candida albicans ATCC SC5314 CYP51 using lanosterol as substrate incubated for 30 mins by HPLC assay
[16] = Toxicity in BALB/c mouse infected with Candida albicans ATCC SC5314 assessed as plasma ALT level at 10 ug, ip for 14 days; format: organism-based; details: in vivo, 336 h, dose 10 µg, time 14 day
Candida tropicalis = assay: Antifungal activity against Candida tropicalis ATCC 1369 assessed as inhibition of fungal growth incubated for 72 hrs by CLSI based liquid medium microdilution method; format: functional
Candida albicans [17] = assay: In vivo antifungal activity against Candida albicans ATCC SC5314 infected in BALB/c mouse assessed as decrease in COX2 expression level at 10 ug, ip for 14 days by immunohistochemical analysis; format: functional, organism-based; details: dose 10.0 µg, time 14.0 day
[18] = Toxicity in BALB/c mouse infected with Candida albicans ATCC SC5314 assessed as morphological changes in lung at 10 ug, ip for 14 days by H and E staining based microscopy; format: organism-based; details: in vivo, 336 h, dose 10 µg, time 14 day
[19] = Toxicity in BALB/c mouse infected with Candida albicans ATCC SC5314 assessed as morphological changes in spleen at 10 ug, ip for 14 days by H and E staining based microscopy; format: organism-based; details: in vivo, 336 h, dose 10 µg, time 14 day
Cryptococcus neoformans = assay: Antifungal activity against Cryptococcus neoformans ZKCC 2209 assessed as inhibition of fungal growth incubated for 72 hrs by CLSI based liquid medium microdilution method; format: functional
Candida albicans [20] = assay: In vivo antifungal activity against Candida albicans ATCC SC5314 infected in BALB/c mouse assessed as decrease in COX2 expression level at 10 ug, ip for 14 days by Western blot analysis; format: functional, organism-based; details: dose 10.0 µg, time 14.0 day
Candida albicans [21] = assay: Antifungal activity against fluconazole-resistant Candida albicans 904 assessed as inhibition of fungal growth incubated for 72 hrs by CLSI based liquid medium microdilution method; format: functional
Candida albicans [22] = assay: In vivo antifungal activity against Candida albicans ATCC SC5314 infected in BALB/c mouse assessed as disappearance of nuclei aggregation at 10 ug, ip for 14 days by GMS staining based microscopy; format: functional, organism-based; details: dose 10.0 µg, time 14.0 day
Candida albicans [23] = assay: Induction of apoptosis in Candida albicans ATCC SC5314 assessed as necrotic cells at 1 microM/ml incubated for 48 hrs by Hoechst 33258/PI staining based flow cytometry (Rvb= 0.03 +/- 0.01%); format: functional
[24] = Toxicity in BALB/c mouse infected with Candida albicans ATCC SC5314 assessed as morphological changes in kidney at 10 ug, ip for 14 days by H and E staining based microscopy; format: organism-based; details: in vivo, 336 h, dose 10 µg, time 14 day
Candida albicans [25] = assay: Antifungal activity against Candida albicans ATCC SC5314 assessed as change in osmotic pressure at 1 microM/ml incubated for 48 hrs by absorbance based assay; format: functional, organism-based
Candida albicans [26] = assay: Induction of apoptosis in Candida albicans ATCC SC5314 assessed as late apoptotic cells at 1 microM/ml incubated for 48 hrs by Hoechst 33258/PI staining based flow cytometry (Rvb= 0.05 +/- 0.01%); format: functional
[27] = Toxicity in BALB/c mouse infected with Candida albicans ATCC SC5314 assessed as morphological changes in liver at 10 ug, ip for 14 days by H and E staining based microscopy; format: organism-based; details: in vivo, 336 h, dose 10 µg, time 14 day
Candida albicans [28] = assay: Antifungal activity against fluconazole-resistant Candida albicans 17# assessed as inhibition of fungal growth incubated for 72 hrs by CLSI based liquid medium microdilution method; format: functional
[29] = molecular target: T1, Lanosterol 14-alpha demethylase; assay: Inhibition of Candida albicans ATCC SC5314 CYP51 assessed as lanosterol content at 4 ug/ml measured after 16 hrs by GC-MS analysis relative to control; design: scale not given: the % may be the effect or the level left; details: at 4 µg/mL

T1 sequence (P10613 whole entry): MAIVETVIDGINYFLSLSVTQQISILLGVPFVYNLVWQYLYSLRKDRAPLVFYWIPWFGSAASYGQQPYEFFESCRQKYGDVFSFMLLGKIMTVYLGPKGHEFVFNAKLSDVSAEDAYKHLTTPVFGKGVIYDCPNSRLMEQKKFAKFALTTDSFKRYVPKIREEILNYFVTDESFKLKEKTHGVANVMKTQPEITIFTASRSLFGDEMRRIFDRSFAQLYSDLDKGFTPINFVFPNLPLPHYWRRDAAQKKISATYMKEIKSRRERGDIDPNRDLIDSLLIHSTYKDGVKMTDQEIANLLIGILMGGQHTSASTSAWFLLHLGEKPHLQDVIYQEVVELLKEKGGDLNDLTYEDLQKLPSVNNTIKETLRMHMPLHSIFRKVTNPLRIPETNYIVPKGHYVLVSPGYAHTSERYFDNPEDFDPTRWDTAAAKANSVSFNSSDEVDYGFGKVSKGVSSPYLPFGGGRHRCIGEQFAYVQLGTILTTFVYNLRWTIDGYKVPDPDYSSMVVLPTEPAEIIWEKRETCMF

Row | SMILES | Activity (Candida albicans [1]) | Activity [2] [%] | Activity (Candida albicans [3]) | Activity [4] [IU/L] | Activity [5] [%] | Activity (Candida albicans [6]) [%] | MIC50 (Aspergillus fumigatus) [µg/mL] | Activity [7] | Activity (Candida albicans [8]) | MIC50 (Candida albicans [9]) [µg/mL] | MIC50 (Pichia kudriavzevii) [µg/mL] | Activity (Candida albicans [10]) | Activity (Candida albicans [11]) | Activity (Candida albicans [12]) | Activity (Candida albicans [13]) [%] | MIC50 (Candida albicans [14]) [µg/mL] | IC50 [15] [nM] | Activity [16] [IU/L] | MIC50 (Candida tropicalis) [µg/mL] | Activity (Candida albicans [17]) | other results
1 | OC(Cn1cncn1)(Cn1cncn1)c1ccc(F)cc1F [FLUCONAZOLE] | Active | 17.84 | Active | 79.7 | 46.52 | 0.28 | > 8 | Non-Toxic | Active | > 8 | 1 (≈ 3.27 µM) | Active | Active | Active | 0.39 | > 8 | 159 | 41.9 | 0.5 (≈ 1.63 µM) | Active | Activity [18]: Non-Toxic; Activity [19]: Non-Toxic; MIC50 (Cryptococcus neoformans): 1 µg/mL (≈ 3.27 µM); Activity (Candida albicans [20]): Active; MIC50 (Candida albicans [21]): > 8 µg/mL; Activity (Candida albicans [22]): Active; Activity (Candida albicans [23]): 0.02%; Activity [24]: Non-Toxic; Activity (Candida albicans [25]): Active; Activity (Candida albicans [26]): 0.07%; Activity [27]: Non-Toxic; MIC50 (Candida albicans [28]): > 8 µg/mL; Activity [29]: 30.06%
2 | CC(=O)c1ccc(C(=O)N2CCC(NC(=O)c3nc(-n4cncn4)c4ccccc4n3)CC2)cc1 | Active | 18.64 | Active | 54.9 | 43.15 | 1.27 | 1 (≈ 2.13 µM) | Non-Toxic | Active | 1 (≈ 2.13 µM) | 0.25 (≈ 0.532 µM) | Active | Active | Active | 0.62 | 4 (≈ 8.52 µM) | 263 | 32.3 | 0.25 (≈ 0.532 µM) | Active | Activity [18]: Non-Toxic; Activity [19]: Non-Toxic; MIC50 (Cryptococcus neoformans): 0.5 µg/mL (≈ 1.06 µM); Activity (Candida albicans [20]): Active; MIC50 (Candida albicans [21]): 2 µg/mL (≈ 4.26 µM); Activity (Candida albicans [22]): Active; Activity (Candida albicans [23]): 0.02%; Activity [24]: Non-Toxic; Activity (Candida albicans [25]): Active; Activity (Candida albicans [26]): 0.07%; Activity [27]: Non-Toxic; MIC50 (Candida albicans [28]): 1 µg/mL (≈ 2.13 µM); Activity [29]: 32.47%
3 | CC(C)c1ccc(C(=O)N2CCC(NC(=O)c3nc(-n4ccnc4)c4ccccc4n3)CC2)cc1 | Active | 20.92 | Active | 66.8 | 45.04 | 0.1 | 2 (≈ 4.27 µM) | Non-Toxic | Active | 1 (≈ 2.13 µM) | 0.5 (≈ 1.07 µM) | Active | Active | Active | 0.1 | 4 (≈ 8.54 µM) | 205 | 30.5 | 0.25 (≈ 0.534 µM) | Active | Activity [18]: Non-Toxic; Activity [19]: Non-Toxic; MIC50 (Cryptococcus neoformans): 0.5 µg/mL (≈ 1.07 µM); Activity (Candida albicans [20]): Active; MIC50 (Candida albicans [21]): > 8 µg/mL; Activity (Candida albicans [22]): Active; Activity (Candida albicans [23]): 0.03%; Activity [24]: Non-Toxic; Activity (Candida albicans [25]): Active; Activity (Candida albicans [26]): 0.19%; Activity [27]: Non-Toxic; MIC50 (Candida albicans [28]): 2 µg/mL (≈ 4.27 µM); Activity [29]: 29.53%
